Results as given in patent publication US20230085307A1, “PYRIDAZINONE COMPOUND AND HERBICIDE” (NISSAN CHEMICAL CORPORATION, priority 2019, published 2023).

Tests used:
late watergrass = assay: Test Example 1: herbicidal activity, application before weed generation under submerged conditions (Table 16, symbol A); assay type: in vivo, late watergrass (Echinochloa oryzicola); settings: amount of applied herbicide 320 g/ha
Procedure, shortened: (§1)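 Emulsion formulation, water-diluted to set dose, was put onto the flooded surface (4 cm depth, alluvial soil) the same day weeds were sown and 2.5-leaf rice transplanted. After 3 weeks at 25-30 °C under glass, each species was rated 0 (≤5% kill) to 5 (≥90% kill).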

Japanese bulrush = assay: Test Example 1: herbicidal activity, application before weed generation under submerged conditions (Table 16, symbol B); assay type: in vivo, Japanese bulrush (Schoenoplectus juncoides); settings: amount of applied herbicide 320 g/ha
Procedure, shortened: as §1

oval-leafed pondweed = assay: Test Example 1: herbicidal activity, application before weed generation under submerged conditions (Table 16, symbol C); assay type: in vivo, oval-leafed pondweed (Monochoria vaginalis); settings: amount of applied herbicide 320 g/ha
Procedure, shortened: as §1

barnyard grass [1] = assay: Test Example 3: herbicidal effect by foliage application, Wagner pot (Table 18, symbol H); assay type: in vivo, barnyard grass (Echinochloa crus-galli); settings: 320 g/ha
Procedure, shortened: (§2)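 Plants were sown in alluvial soil held under 0.1–0.5 cm standing water and grown 14 days in a greenhouse at 25–30 °C. An emulsifiable formulation, water-diluted to the set dose, was then sprayed onto the foliage, and effects were scored three weeks later using previously defined criteria.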

Chinese sprangletop = assay: Test Example 3: herbicidal effect by foliage application, Wagner pot (Table 18, symbol D); assay type: in vivo, chinese sprangletop (Leptochloa chinensis); settings: 320 g/ha
Procedure, shortened: as §2

rice flat sedge = assay: Test Example 3: herbicidal effect by foliage application, Wagner pot (Table 18, symbol E); assay type: in vivo, rice flat sedge (Cyperus iria); settings: 320 g/ha
Procedure, shortened: as §2

southern crabgrass [2] = assay: Test Example 4: herbicidal effect by soil treatment (Table 19, symbol F); assay type: in vivo, southern crabgrass (Digitaria ciliaris); settings: amount of applied herbicide 320 g/ha
Procedure, shortened: (§3)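 Applied as a water-diluted emulsion, the compound was sprayed onto soil covering newly sown seeds. Evaluation came three weeks after application, in a greenhouse held at 25° C. to 30° C.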

green foxtail [3] = assay: Test Example 4: herbicidal effect by soil treatment (Table 19, symbol G); assay type: in vivo, green foxtail (Setaria viridis); settings: amount of applied herbicide 320 g/ha
Procedure, shortened: as §3

barnyard grass [4] = assay: Test Example 4: herbicidal effect by soil treatment (Table 19, symbol H); assay type: in vivo, barnyard grass (Echinochloa crus-galli); settings: amount of applied herbicide 320 g/ha
Procedure, shortened: as §3

wild oat [5] = assay: Test Example 4: herbicidal effect by soil treatment (Table 19, symbol I); assay type: in vivo, wild oat (Avena fatua); settings: amount of applied herbicide 320 g/ha
Procedure, shortened: as §3

blackgrass [6] = assay: Test Example 4: herbicidal effect by soil treatment (Table 19, symbol J); assay type: in vivo, blackgrass (Alopecurus myosuroides); settings: amount of applied herbicide 320 g/ha
Procedure, shortened: as §3

Italian ryegrass [7] = assay: Test Example 4: herbicidal effect by soil treatment (Table 19, symbol K); assay type: in vivo, Italian ryegrass (Lolium multiflorum); settings: amount of applied herbicide 320 g/ha
Procedure, shortened: as §3

windgrass [8] = assay: Test Example 4: herbicidal effect by soil treatment (Table 19, symbol L); assay type: in vivo, windgrass (Apera spica-venti); settings: amount of applied herbicide 320 g/ha
Procedure, shortened: as §3

velvetleaf [9] = assay: Test Example 4: herbicidal effect by soil treatment (Table 19, symbol M); assay type: in vivo, velvetleaf (Abutilon theophrasti); settings: amount of applied herbicide 320 g/ha
Procedure, shortened: as §3

redroot pigweed [10] = assay: Test Example 4: herbicidal effect by soil treatment (Table 19, symbol N); assay type: in vivo, redroot pigweed (Amaranthus retroflexus); settings: amount of applied herbicide 320 g/ha
Procedure, shortened: as §3

lambsquarters [11] = assay: Test Example 4: herbicidal effect by soil treatment (Table 19, symbol O); assay type: in vivo, lambsquarters (Chenopodium album); settings: amount of applied herbicide 320 g/ha
Procedure, shortened: as §3

chickweed [12] = assay: Test Example 4: herbicidal effect by soil treatment (Table 19, symbol P); assay type: in vivo, common chickweed (Stellaria media); settings: amount of applied herbicide 320 g/ha
Procedure, shortened: as §3

southern crabgrass [13] = assay: Test Example 5: herbicidal effect by foliage application, plastic box (Table 20, symbol F); assay type: in vivo, southern crabgrass (Digitaria ciliaris); settings: amount of applied herbicide 320 g/ha; foliage application after 14-day growth; evaluated three weeks after application
Procedure, shortened: (§4)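 Sow seeds spot-wise in sterilized diluvial soil; cover with ~1.5 cm soil. Grow 14 days in greenhouse, 25° C. to 30° C. Spray foliage with emulsion diluted to predetermined amount. Rate effect after 3 weeks.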

green foxtail [14] = assay: Test Example 5: herbicidal effect by foliage application, plastic box (Table 20, symbol G); assay type: in vivo, green foxtail (Setaria viridis); settings: amount of applied herbicide 320 g/ha; foliage application after 14-day growth; evaluated three weeks after application
Procedure, shortened: as §4

barnyard grass [15] = assay: Test Example 5: herbicidal effect by foliage application, plastic box (Table 20, symbol H); assay type: in vivo, barnyard grass (Echinochloa crus-galli); settings: amount of applied herbicide 320 g/ha; foliage application after 14-day growth; evaluated three weeks after application
Procedure, shortened: as §4

wild oat [16] = assay: Test Example 5: herbicidal effect by foliage application, plastic box (Table 20, symbol I); assay type: in vivo, wild oat (Avena fatua); settings: amount of applied herbicide 320 g/ha; foliage application after 14-day growth; evaluated three weeks after application
Procedure, shortened: as §4

blackgrass [17] = assay: Test Example 5: herbicidal effect by foliage application, plastic box (Table 20, symbol J); assay type: in vivo, blackgrass (Alopecurus myosuroides); settings: amount of applied herbicide 320 g/ha; foliage application after 14-day growth; evaluated three weeks after application
Procedure, shortened: as §4

Italian ryegrass [18] = assay: Test Example 5: herbicidal effect by foliage application, plastic box (Table 20, symbol K); assay type: in vivo, Italian ryegrass (Lolium multiflorum); settings: amount of applied herbicide 320 g/ha; foliage application after 14-day growth; evaluated three weeks after application
Procedure, shortened: as §4

windgrass [19] = assay: Test Example 5: herbicidal effect by foliage application, plastic box (Table 20, symbol L); assay type: in vivo, windgrass (Apera spica-venti); settings: amount of applied herbicide 320 g/ha; foliage application after 14-day growth; evaluated three weeks after application
Procedure, shortened: as §4

velvetleaf [20] = assay: Test Example 5: herbicidal effect by foliage application, plastic box (Table 20, symbol M); assay type: in vivo, velvetleaf (Abutilon theophrasti); settings: amount of applied herbicide 320 g/ha; foliage application after 14-day growth; evaluated three weeks after application
Procedure, shortened: as §4

redroot pigweed [21] = assay: Test Example 5: herbicidal effect by foliage application, plastic box (Table 20, symbol N); assay type: in vivo, redroot pigweed (Amaranthus retroflexus); settings: amount of applied herbicide 320 g/ha; foliage application after 14-day growth; evaluated three weeks after application
Procedure, shortened: as §4

lambsquarters [22] = assay: Test Example 5: herbicidal effect by foliage application, plastic box (Table 20, symbol O); assay type: in vivo, lambsquarters (Chenopodium album); settings: amount of applied herbicide 320 g/ha; foliage application after 14-day growth; evaluated three weeks after application
Procedure, shortened: as §4

chickweed [23] = assay: Test Example 5: herbicidal effect by foliage application, plastic box (Table 20, symbol P); assay type: in vivo, common chickweed (Stellaria media); settings: amount of applied herbicide 320 g/ha; foliage application after 14-day growth; evaluated three weeks after application
Procedure, shortened: as §4

persian speedwell = assay: Test Example 5: herbicidal effect by foliage application, plastic box (Table 20, symbol R); assay type: in vivo, Persian speedwell (Veronica persica); settings: amount of applied herbicide 320 g/ha; foliage application after 14-day growth; evaluated three weeks after application
Procedure, shortened: as §4

CCCC(=O)Oc1c(C)nn(C)c(=O)c1-c1c(-c2ccc3c(c2)OCCO3)sc2cc(F)c(F)cc12 [5-038]
Herbicidal effect, A: late watergrass (late watergrass): 4 (Herbicidal rate of 70% or more and less than 90%)
Herbicidal effect, B: Japanese bulrush (Japanese bulrush): 3 (Herbicidal rate of 40% or more and less than 70%)
Herbicidal effect, C: oval-leafed pondweed (oval-leafed pondweed): 4 (Herbicidal rate of 70% or more and less than 90%)
herbicidal effect on barnyard grass (H) (barnyard grass [1]): 2 (Herbicidal rate of 20% or more and less than 40%)
herbicidal effect on Chinese sprangletop (D) (Chinese sprangletop): 2 (Herbicidal rate of 20% or more and less than 40%)
herbicidal effect on rice flat sedge (E) (rice flat sedge): 4 (Herbicidal rate of 70% or more and less than 90%)
F: southern crabgrass, herbicidal effect grade (southern crabgrass [2]): 0 (Herbicidal rate of 5% or less (almost no effect))
G: green foxtail, herbicidal effect grade (green foxtail [3]): 0 (Herbicidal rate of 5% or less (almost no effect))
H: barnyard grass, herbicidal effect grade (barnyard grass [4]): 0 (Herbicidal rate of 5% or less (almost no effect))
I: wild oat, herbicidal effect grade (wild oat [5]): 0 (Herbicidal rate of 5% or less (almost no effect))
J: blackgrass, herbicidal effect grade (blackgrass [6]): 0 (Herbicidal rate of 5% or less (almost no effect))
K: Italian ryegrass, herbicidal effect grade (Italian ryegrass [7]): 0 (Herbicidal rate of 5% or less (almost no effect))
L: windgrass, herbicidal effect grade (windgrass [8]): 0 (Herbicidal rate of 5% or less (almost no effect))
M: velvetleaf, herbicidal effect grade (velvetleaf [9]): 0 (Herbicidal rate of 5% or less (almost no effect))
N: redroot pigweed, herbicidal effect grade (redroot pigweed [10]): 2 (Herbicidal rate of 20% or more and less than 40%)
O: lambsquarters, herbicidal effect grade (lambsquarters [11]): 4 (Herbicidal rate of 70% or more and less than 90%)
P: chickweed, herbicidal effect grade (chickweed [12]): 0 (Herbicidal rate of 5% or less (almost no effect))
Herbicidal effect by foliage application, F: southern crabgrass (southern crabgrass [13]): 0 (Herbicidal rate of 5% or less (almost no effect))
Herbicidal effect by foliage application, G: green foxtail (green foxtail [14]): 0 (Herbicidal rate of 5% or less (almost no effect))
Herbicidal effect by foliage application, H: barnyard grass (barnyard grass [15]): 0 (Herbicidal rate of 5% or less (almost no effect))
Herbicidal effect by foliage application, I: wild oat (wild oat [16]): 0 (Herbicidal rate of 5% or less (almost no effect))
Herbicidal effect by foliage application, J: blackgrass (blackgrass [17]): 0 (Herbicidal rate of 5% or less (almost no effect))
Herbicidal effect by foliage application, K: Italian ryegrass (Italian ryegrass [18]): 0 (Herbicidal rate of 5% or less (almost no effect))
Herbicidal effect by foliage application, L: windgrass (windgrass [19]): 0 (Herbicidal rate of 5% or less (almost no effect))
Herbicidal effect by foliage application, M: velvetleaf (velvetleaf [20]): 3 (Herbicidal rate of 40% or more and less than 70%)
Herbicidal effect by foliage application, N: redroot pigweed (redroot pigweed [21]): 2 (Herbicidal rate of 20% or more and less than 40%)
Herbicidal effect by foliage application, O: lambsquarters (lambsquarters [22]): 1 (Herbicidal rate of 5% or more and less than 20%)
Herbicidal effect by foliage application, P: chickweed (chickweed [23]): 5 (Herbicidal rate of 90% or more (almost completely withered))
Herbicidal effect by foliage application, R: persian speedwell (persian speedwell): 5 (Herbicidal rate of 90% or more (almost completely withered))
